# Experiments:
# Format in all cases: in vivo
# [1] = tested on: ivyleaf morningglory (Ipomoea hederacea, IPOHE); assay: Pre-emerge test, greenhouse herbicide activity screening; conditions: Ipomoea, pre-emergence, 336 h, pre-emerge, phytotoxicity rating 0-100 at 14 days after application, read-out: Pre-emerge Herbicidal Activity IPOHE; for pest or weed control at 63 g/ha: rate 63 g ai/ha; for pest or weed control at 250 g/ha: rate 250 g ai/ha
# Procedure, shortened: (§1)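 Fourteen days after spraying, crop and weed injury was graded visually from 0, no effect, to 100, every plant dead. Test substances were dissolved in acetone and applied at 15–1000 g ai/ha with a flat-fan nozzle. Application was either pre-emergence, one day after sowing, or post-emergence at the 2–3 leaf stage.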
# [2] = tested on: barnyardgrass (Echinochloa crus-galli, ECHCG); assay: as above; conditions: Echinochloa crus-galli, pre-emergence, 336 h, pre-emerge, phytotoxicity rating 0-100 at 14 days after application, read-out: Pre-emerge Herbicidal Activity ECHCG; for pest or weed control at 63 g/ha: rate 63 g ai/ha; for pest or weed control at 250 g/ha: rate 250 g ai/ha
# Procedure, shortened: as §1
# [3] = tested on: sicklepod (Cassia obtusifolia, CASOB); assay: as above; conditions: Senna obtusifolia, pre-emergence, 336 h, pre-emerge, phytotoxicity rating 0-100 at 14 days after application, read-out: Pre-emerge Herbicidal Activity CASOB; for pest or weed control at 63 g/ha: rate 63 g ai/ha; for pest or weed control at 250 g/ha: rate 250 g ai/ha
# Procedure, shortened: as §1
# [4] = tested on: large crabgrass (Digitaria sanguinalis, DIGSA); assay: as above; conditions: Digitaria sanguinalis, pre-emergence, 336 h, pre-emerge, phytotoxicity rating 0-100 at 14 days after application, read-out: Pre-emerge Herbicidal Activity DIGSA; for pest or weed control at 63 g/ha: rate 63 g ai/ha; for pest or weed control at 250 g/ha: rate 250 g ai/ha
# Procedure, shortened: as §1
# [5] = tested on: ivyleaf morningglory (Ipomoea hederacea, IPOHE); assay: Post-emerge test, greenhouse herbicide activity screening; conditions: Ipomoea, post-emergence, 336 h, post-emerge, phytotoxicity rating 0-100 at 14 days after application, read-out: Post-emerge Herbicidal Activity IPOHE; for pest or weed control at 63 g/ha: 63 g ai/ha; for pest or weed control at 250 g/ha: 250 g ai/ha
# Procedure, shortened: (§2)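 Herbicidal damage is scored 0 (none) to 100 (complete plant death) two weeks after a simulated field spray. Rates span 15–1000 g ai/ha, delivered in acetone at 187 l/ha. For post-emergence treatments, plants have 2–3 leaves and the spray carries 0.25% v/v non-ionic surfactant.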
# [6] = tested on: barnyardgrass (Echinochloa crus-galli, ECHCG); assay: as above; conditions: Echinochloa crus-galli, post-emergence, 336 h, post-emerge, phytotoxicity rating 0-100 at 14 days after application, read-out: Post-emerge Herbicidal Activity ECHCG; for pest or weed control at 63 g/ha: 63 g ai/ha; for pest or weed control at 250 g/ha: 250 g ai/ha
# Procedure, shortened: as §2
# [7] = tested on: lambsquarters (Chenopodium album, CHEAL); assay: as above; conditions: Chenopodium album, post-emergence, 336 h, post-emerge, phytotoxicity rating 0-100 at 14 days after application, read-out: Post-emerge Herbicidal Activity CHEAL; for pest or weed control at 63 g/ha: 63 g ai/ha; for pest or weed control at 250 g/ha: 250 g ai/ha
# Procedure, shortened: as §2
# [8] = tested on: sicklepod (Cassia obtusifolia, CASOB); assay: as above; conditions: Senna obtusifolia, post-emergence, 336 h, post-emerge, phytotoxicity rating 0-100 at 14 days after application, read-out: Post-emerge Herbicidal Activity CASOB; for pest or weed control at 63 g/ha: 63 g ai/ha; for pest or weed control at 250 g/ha: 250 g ai/ha
# Procedure, shortened: as §2
# [9] = tested on: redroot pigweed (Amaranthus retroflexus, AMARE); assay: as above; conditions: Amaranthus retroflexus, post-emergence, 336 h, post-emerge, phytotoxicity rating 0-100 at 14 days after application, read-out: Post-emerge Herbicidal Activity AMARE; for pest or weed control at 63 g/ha: 63 g ai/ha; for pest or weed control at 250 g/ha: 250 g ai/ha
# Procedure, shortened: as §2
# [10] = tested on: large crabgrass (Digitaria sanguinalis, DIGSA); assay: as above; conditions: Digitaria sanguinalis, post-emergence, 336 h, post-emerge, phytotoxicity rating 0-100 at 14 days after application, read-out: Post-emerge Herbicidal Activity DIGSA; for pest or weed control at 63 g/ha: 63 g ai/ha; for pest or weed control at 250 g/ha: 250 g ai/ha
# Procedure, shortened: as §2
# [11] = tested on: green foxtail (Setaria viridis, SETVI); assay: as above; conditions: Setaria viridis, post-emergence, 336 h, post-emerge, phytotoxicity rating 0-100 at 14 days after application, read-out: Post-emerge Herbicidal Activity SETVI; for pest or weed control at 63 g/ha: 63 g ai/ha; for pest or weed control at 250 g/ha: 250 g ai/ha
# Procedure, shortened: as §2
# [12] = tested on: johnsongrass (Sorghum halepense, SORHA); assay: as above; conditions: Sorghum halepense, post-emergence, 336 h, post-emerge, phytotoxicity rating 0-100 at 14 days after application, read-out: Post-emerge Herbicidal Activity SORHA; for pest or weed control at 63 g/ha: 63 g ai/ha; for pest or weed control at 250 g/ha: 250 g ai/ha
# Procedure, shortened: as §2
# [13] = tested on: velvetleaf (Abutilon theophrasti, ABUTH); assay: as above; conditions: Abutilon theophrasti, post-emergence, 336 h, post-emerge, phytotoxicity rating 0-100 at 14 days after application, read-out: Post-emerge Herbicidal Activity ABUTH; for pest or weed control at 63 g/ha: 63 g ai/ha; for pest or weed control at 250 g/ha: 250 g ai/ha
# Procedure, shortened: as §2
SMILES,pest or weed control at 63 g/ha [1],pest or weed control at 250 g/ha [1],pest or weed control at 63 g/ha [2],pest or weed control at 250 g/ha [2],pest or weed control at 63 g/ha [3],pest or weed control at 250 g/ha [3],pest or weed control at 63 g/ha [4],pest or weed control at 250 g/ha [4],pest or weed control at 63 g/ha [5],pest or weed control at 250 g/ha [5],pest or weed control at 63 g/ha [6],pest or weed control at 250 g/ha [6],pest or weed control at 63 g/ha [7],pest or weed control at 250 g/ha [7],pest or weed control at 63 g/ha [8],pest or weed control at 250 g/ha [8],pest or weed control at 63 g/ha [9],pest or weed control at 250 g/ha [9],pest or weed control at 63 g/ha [10],pest or weed control at 250 g/ha [10],further results
"CC(C)Oc1c(Cl)cc(F)c(-n2nnn(CCCF)c2=O)c1N [Compound 5-18, 1-(2-amino-4-chloro-6-fluoro-3-isopropyloxyphenyl)-4-(3fluoropropyl)-1,4-dihydro-5-oxo-5H-tetrazole]",0%,0%,0%,0%,0%,10%,30%,20%,0%,0%,0%,0%,10%,10%,0%,0%,0%,10%,0%,0%,pest or weed control at 63 g/ha [11]: 0%; pest or weed control at 250 g/ha [11]: 0%; pest or weed control at 63 g/ha [12]: 0%; pest or weed control at 250 g/ha [12]: 0%; pest or weed control at 63 g/ha [13]: 70%; pest or weed control at 250 g/ha [13]: 70%
Cc1nn(-c2c(Cl)cc(Cl)c(N)c2N)c(=O)n1C(F)F [Compound 6-20],0%,0%,0%,0%,0%,0%,0%,0%,0%,40%,0%,0%,0%,60%,0%,0%,0%,60%,0%,0%,pest or weed control at 63 g/ha [11]: 0%; pest or weed control at 250 g/ha [11]: 0%; pest or weed control at 63 g/ha [12]: 0%; pest or weed control at 250 g/ha [12]: 0%; pest or weed control at 63 g/ha [13]: 0%; pest or weed control at 250 g/ha [13]: 50%
Cc1nn(-c2c(N)cc(Cl)cc2F)c(=O)n1C(F)F [Compound 6-22],0%,0%,0%,0%,0%,60%,0%,20%,20%,70%,0%,0%,50%,70%,0%,0%,70%,100%,0%,0%,pest or weed control at 63 g/ha [11]: 0%; pest or weed control at 250 g/ha [11]: 0%; pest or weed control at 63 g/ha [12]: 0%; pest or weed control at 250 g/ha [12]: 0%; pest or weed control at 63 g/ha [13]: 60%; pest or weed control at 250 g/ha [13]: 80%
Cc1nn(-c2c(F)cc(Cl)cc2NC(=O)c2ccc3ccccc3c2)c(=O)n1C(F)F [Compound 6-24],0%,0%,0%,0%,0%,0%,0%,20%,0%,60%,0%,0%,30%,90%,0%,10%,0%,80%,0%,0%,pest or weed control at 63 g/ha [11]: 0%; pest or weed control at 250 g/ha [11]: 40%; pest or weed control at 63 g/ha [12]: 0%; pest or weed control at 250 g/ha [12]: 0%; pest or weed control at 63 g/ha [13]: 20%; pest or weed control at 250 g/ha [13]: 95%
COc1c(Cl)cc(F)c(-c2nn(C)c(C(F)(F)F)c2Cl)c1NC(=O)C=Cc1ccccc1 [Compound 7-15],0%,50%,0%,10%,0%,10%,0%,60%,70%,70%,0%,10%,100%,100%,40%,80%,100%,100%,0%,0%,pest or weed control at 63 g/ha [11]: 10%; pest or weed control at 250 g/ha [11]: 10%; pest or weed control at 63 g/ha [12]: 0%; pest or weed control at 250 g/ha [12]: 0%; pest or weed control at 63 g/ha [13]: 100%; pest or weed control at 250 g/ha [13]: 99%

# — patent publication US6355799B1, “Substituted benzene compounds, process for their preparation, and herbicidal and defoliant compositions containing them” (ISK Americas Incorporated, priority 1997, dated 2002)
